Data published in PubChem BioAssay (NCI).
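Where inhibition never reached the appropriate level, the endpoint shown equals the highest concentration tested. Otherwise, values were interpolated linearly from a five-concentration, 48-hour dose response in 96-well plates. GI50: concentration for 50% inhibition of growth. TGI denotes the concentration required for complete inhibition of growth.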

Assays:
Assay in all cases: NCI anticancer screen, dose series, 48 h
A498 renal = system: A498 renal
BT-549 breast = system: BT-549 breast
CCRF-CEM leukemia = system: CCRF-CEM leukemia
HCC-2998 colon = system: HCC-2998 colon
HCT-116 colon = system: HCT-116 colon
HCT-15 colon = system: HCT-15 colon
SK-MEL-5 melanoma = system: SK-MEL-5 melanoma
UACC-62 melanoma = system: UACC-62 melanoma
UO-31 renal = system: UO-31 renal
SR leukemia = system: SR leukemia

Compound | GI50 (A498 renal) [µM] | TGI (A498 renal) [µM] | GI50 (BT-549 breast) [µM] | TGI (BT-549 breast) [µM] | GI50 (CCRF-CEM leukemia) [µM] | TGI (CCRF-CEM leukemia) [µM] | GI50 (HCC-2998 colon) [µM] | TGI (HCC-2998 colon) [µM] | GI50 (HCT-116 colon) [µM] | TGI (HCT-116 colon) [µM] | GI50 (HCT-15 colon) [µM] | TGI (HCT-15 colon) [µM] | GI50 (SK-MEL-5 melanoma) [µM] | TGI (SK-MEL-5 melanoma) [µM] | GI50 (UACC-62 melanoma) [µM] | TGI (UACC-62 melanoma) [µM] | TGI (UO-31 renal) [µM] | TGI (SR leukemia) [µM] | GI50 (UO-31 renal) [µM] | GI50 (SR leukemia) [µM]
N#Cc1c(N)nc(N2CCOCC2)c(C#N)c1-c1cccc(O)c1 | 14.8 | 58.3 | 89.9 | > 100 | > 100 | > 100 | 68.5 | > 100 | > 100 | > 100 | 67 | > 100 | > 100 | > 100 | 40.8 | > 100 | – | – | – | –
N#Cc1c(C(N)=O)ncn1Cc1ccccc1 | – | > 100 | – | – | – | > 100 | – | > 100 | – | > 100 | – | > 100 | – | > 100 | – | > 100 | > 100 | – | – | –
O=C1CC(c2ccccc2)NCN1 (stereo unspecified) | – | > 100 | – | – | – | > 100 | – | > 100 | – | > 100 | – | > 100 | – | > 100 | – | > 100 | > 100 | > 100 | – | –
CCCCCCCCO/N=C\c1c2c(O)c3c(O)c(C)c4c(c3c1O)C(=O)C(C)(O/C=C\C(OC)C(C)C(OC(C)=O)C(C)C(O)C(C)C(O)C(C)/C=C\C=C(\C)C(=O)N2)O4 (stereo unspecified) | 1.81 | 7.12 | – | – | 1.95 | 9.82 | 2.05 | 7.03 | 1.06 | 2.19 | 1.79 | 6.81 | 0.948 | 2.09 | 1.02 | 2.92 | – | – | – | –
CCC12CC[C@H](C#N)N3CCc4c(n(c5ccccc45)C(=O)C1)C32 (stereo partly specified) | – | 35.1 | – | – | – | 44.3 | – | 32.4 | – | 26.8 | – | 20.3 | – | 27.2 | – | 33.4 | 10.2 | – | – | –
COc1ccc(/C(Cl)=C(\C=O)c2cc(OC)c(OC)c(OC)c2)cc1OC | – | > 90.3 | – | – | – | > 100 | – | > 100 | – | > 100 | – | > 100 | – | > 100 | – | > 100 | > 100 | > 100 | – | –
NC1=NN(c2ccccc2)C(=O)C1C(=O)C(=O)Nc1cccc(C(F)(F)F)c1 (stereo unspecified) | – | > 100 | – | – | – | > 100 | – | > 100 | – | > 100 | – | > 100 | – | > 100 | – | > 100 | > 100 | – | – | –
CC1(C)CC2=NOS3=C2C(=NO3)C1c1ccccn1 (stereo unspecified) | – | > 100 | – | – | – | 78.4 | – | > 100 | – | > 100 | – | > 100 | – | 34.8 | – | > 100 | > 100 | 81 | – | –
O=C(O/N=C1/CCC/C1=C\c1ccccc1)c1ccccc1 | – | > 100 | – | – | – | > 100 | – | – | – | > 100 | – | > 100 | – | > 100 | – | > 100 | – | > 100 | – | –
O[C@H]1[C@H]2[C@H](O)CCCN2C[C@H]1O | – | > 100 | – | – | – | > 100 | – | > 100 | – | > 100 | – | > 100 | – | > 100 | – | > 100 | > 100 | – | – | –
COc1cc(C(=O)O)ccc1NC(=O)[C@@H]1N[C@@H](CC(C)(C)C)[C@](C#N)(c2ccc(Cl)cc2F)[C@H]1c1cccc(Cl)c1F | 0.132 | 2.79 | 2.76 | 7.11 | 2.53 | > 26.3 | 4.62 | 13.3 | – | – | 2.93 | 10.1 | – | – | 0.0909 | 2.13 | 5.03 | – | 0.0414 | –
CC(=O)[CH-]C(C)=O.CC(=O)[CH-]C(C)=O.CC(=O)[CH-]C(C)=O.[Cl-].[Hf+4] | > 100 | > 100 | – | – | > 100 | > 100 | > 100 | > 100 | > 100 | > 100 | > 100 | > 100 | – | – | > 100 | > 100 | > 100 | > 100 | > 100 | > 100
C/C(=N\[N+](C)(C)C)C(c1ccccc1)C1(c2ccccc2)C(c2ccccc2)=C1c1ccccc1 (stereo unspecified) | – | > 100 | – | – | – | > 100 | – | > 100 | – | > 100 | – | > 100 | – | > 100 | – | > 100 | > 100 | – | – | –
Cn1cc(C(=O)/C(Cl)=C(\Cl)C(=O)O)c2ccccc21 | – | > 100 | – | – | – | > 100 | – | > 100 | – | > 100 | – | > 100 | – | > 100 | – | > 100 | > 100 | – | – | –
O=C(/C=C/c1ccc2c(c1)OCO2)c1ccccc1 | 12.4 | 25.4 | – | – | 19.1 | 81.2 | 16 | 30.2 | 3.74 | 14.1 | 16.6 | > 100 | 15.6 | 29.4 | 16.3 | 33.7 | 18.9 | 13.9 | 4.19 | 2.56
O=C(/C=C/C12c3ccccc3C(c3ccccc31)C1C(=O)NC(=O)C12)c1ccco1 (stereo unspecified) | 2.42 | 6.05 | 2.89 | 7.53 | 1.24 | 9.57 | 1.79 | 3.52 | 1.69 | 3.74 | 2.14 | 5.43 | 1.77 | 3.28 | 2.16 | 4.9 | 7.49 | – | 2.19 | –
Cc1ccc(-c2nc3nc(-c4ccc(Cl)cc4)nc(N4CCCNCC4)c3o2)cc1 | 1.88 | 3.56 | 1.9 | 3.61 | 0.7 | 2.91 | 1.89 | 3.54 | 1.53 | 2.94 | 1.57 | 3.08 | 1.82 | 3.33 | 1.74 | 3.24 | 2.62 | – | 1.3 | –
COc1ccc(C(=O)O)c2c(=O)c3ccccc3[nH]c12 | – | > 100 | – | – | – | > 31.6 | – | > 100 | – | > 100 | – | > 100 | – | – | – | > 100 | > 100 | > 100 | – | –
CO/C=C/c1cc2c(cc1C(OC)OC)OCO2 | – | – | – | – | – | > 100 | – | > 100 | – | > 100 | – | – | – | 42.8 | – | 69.1 | > 100 | > 100 | – | –
